≈ marks a conversion by molar mass, not a printed value. Where two headings read alike, the source gives them in different places. Blank lines part the entries; values can stand above or below the molecule they belong to.
What was measured:
[1] = tested on: iNOS biosynthesis of NO in C2C12 myocytes; test: Inhibition of LTI (LPS/TNFα/IFγ)-stimulated iNOS biosynthesis of NO in C2C12 myocytes; assay type: cell-based, murine; conditions: Mus musculus
Source text: The Model—The C2C12 murine myocyte model was used in this Example. This model was selected to serve as the surrogate for muscle cells of the bladder that are exposed to the inflammatory stimuli of the invading bacteria, modeled by lipopolysaccharide (LPS), as well as the counter-inflammatory responses of the bladder infiltrating macrophage, modeled by interferon gamma (IFγ) and tumor necrosis factor alpha (TNFα). […] A significant increase in baseline NO production in cats with feline interstitial cystitis compared with that in healthy cats has been found in smooth muscle and mucosal strips.
(§1) Cell culture and treatment—Mouse C2C12 myoblasts (American Type Culture Collection, Manassas, Va.) were maintained in Dulbecco's modified Eagle's medium (DMEM) supplemented with 10% fetal calf serum (FCS), 50 units/ml penicillin and 50 μg/ml streptomycin. As cells reached confluence, the medium was switched to the differentiation medium containing DMEM and 2% horse serum. Medium was changed every other day. After 4 additional days, the differentiated C2C12 cells had fused into myotubes, which were then treated in serum-free DMEM with either vehicle alone (0.1% DMSO), or 50, 10, 5, or 1 μg thymoquinone/mL for 1 hour and then stimulated with a cytokine mixture containing 1 μg LPS/mL, 50 ng TNFα/mL and 100 U IFγ/mL (LTI) for 20 hours. At the end of the treatment period, media were sampled for determination of NO.
Nitric oxide determination—NBD methylhydrazine (NBDM, N-methyl-4-hydrazino-7-nitrobenzofurazan) was used to detect N-methyl-4-amino-7-nitrobenzofuazan, the fluorescent product of the NBDM reagent with nitrite (Buldt A, Karst U. Determination of nitrite in waters by microplate fluorescence spectroscopy and HPLC with fluorescence detection. Anal Chem. Aug. 1, 1999; 71(15):3003-3007). In a separate, black-walled, 96-well, microtiter plate, a 7 μL aliquot of a 4.8×10^−4 mol NBDM/L solution was added to 200 μL of the supernatant media followed by the addition of 15 μL of concentrated phosphoric acid. After a reaction time of 30 minutes at ambient temperature, the fluorescence was read with 485 nm excitation filter and a 530 nm emission filter in a Packard Fluorocount spectrofluorometer (Model#BF10000, Meridan, Conn.). Fluoresence was linear in the range of 3.59×10^−7 to 1.44×10^−5 mol nitrite/L. The standard deviation was 3.5 percent for 1.44×10^−6 mol nitrite/L. Experiments were performed a minimum of three times with eight replicates per dose, capturing the median inhibitory concentration (IC50) when possible.
Calculations—The median inhibitory concentrations (IC50) and 95% confidence interval were calculated using CalcuSyn (BIOSOFT, Ferguson, Mo.). This statistical package performs multiple drug dose-effect calculations using the Median Effect methods described by Chou and Talalay [Chou T C, Talalay P. Quantitative analysis of dose-effect relationships: the combined effects of multiple drugs or enzyme inhibitors. Adv Enzyme Regul. 1984; 22:27-55].
The Model—The C2C12 murine myocyte model as described in Example 1 was used.
as §1, with “units/mL” for “units/ml”, “μg/mL of the thymoquinone test formulation” for “μg thymoquinone/mL”, “IFγ/mL” for “IFγ/mL (LTI)”, “NO. […]” for “NO.”

[2] = tested on: NO production in LPS-stimulated macrophages; conditions: single stimulating agent, El-Mahmoudy 2002; cited from earlier work
[3] = 1500 to 3000 mg/day in humans, 19 subjects, reduced from 7.5; Jarrar 1996; cited from earlier work
[4] = pure compounds from Sigma, LTI-stimulated C2C12 myocytes as in Example 1, read-out: median inhibitory concentration

SMILES: Cc1ccc(C(C)C)c(O)c1 [thymol]
IC50 [1, 4]: ≥ 10 µg/mL

SMILES: CSCC[C@H](N)C(=O)O [Methionine]
mean pH values of the urine after treatment [3]: 5.5

SMILES: CC=Cc1ccc(OC)cc1 [anethole]
IC50 [1, 4]: ≥ 10 µg/mL

SMILES: Cc1ccc(C(C)C)cc1O [carvacrol]
IC50 ([1]; C2C12, read-out: median inhibitory concentration): ≥ 10 µg/mL

Now from value to molecule, other results behind:

IC50 ([1]; C2C12 myotubes, 1 h pre-treatment, then LPS/TNFα/IFγ mixture for 20 h, 95% confidence interval 1.1 to 2.3 μg/mL, read-out: median inhibitory concentration of iNOS-mediated NO production): 1.6 µg/mL (≈ 9.74 µM)
IC50 ([1]; LTI-stimulated C2C12 myocytes, adjusted for thymoquinone content, brackets = 95% confidence interval, read-out: Adjusted iNOS (IC50)): 1.6 µg/mL (≈ 9.74 µM)
SMILES: CC1=CC(=O)C(C(C)C)=CC1=O [thymoquinone]
IC50 inhibiting NO production [2]: 1.4 to 2.8 µg/mL

IC50 [1, 4]: ≥ 10 µg/mL
SMILES: Cc1ccc(C(C)C)cc1 [cymene]
